Measurements as given in patent publication US20130338130A1 (priority 2009, published 2013).
Converted amounts (≈) assume the structure as drawn. Read-outs that look alike come from different tables or passages of the source.

Assays:
[1] = tested on: ATCC strain 43300 Staphylococcus aureus; conditions: for survival (cfu/ml): 24 hours, triplicate platings
Description: Additional antibiotic was added every 24 hours. The growth periods tested were 24 (FIG. 5), 48, 72, 96 and 120 hours.
(§1) USP<51> Antimicrobial Effectiveness protocol was used as the template experimental paradigm. […] All concentrations were plated out to the 10^−7 dilutions to ascertain cfu/ml. […] Additional antibiotic was added at the initial concentration every 24 hours.
ATCC strain 43300 Staphylococcus aureus was streaked out for isolations. An isolated colony was chosen, streaked again and incubated. Isolate was chosen and then diluted to a McFarland standard of one. The estimated value was then taken to inoculate tubes containing growth media and 12, 30 or 60 μg/ml methicillin with approximately 10^5 cfu/ml. These tubes were incubated and plated for counting cfu.
Material was calculated on a 10 ml volume. Sterile methicillin was added to each experimental condition to a final concentration of 12, 30 or 60 μg/ml antibiotic. Lactose Broth positive controls both with and without the 12 μg/ml, 30 μg/ml, 60 μg/ml antibiotic were inoculated with MRSA. […] Tubes were set up in singlet, but plated in triplicate, as described below.
All tubes were then inoculated with a dilution of the selected ATCC strain 43300 Staphylococcus aureus clone giving a final level of colony forming units of 1.49×10^5/ml (log=5.17). The tubes were incubated at 25° C. and mixed periodically. Antibiotic was re-inoculated every 24 hours at the initial concentration to maintain pressure on the organism. Plating was done at 24, 48, 72, and 120 hours. Each condition was plated by diluting 1 ml of growth material into 9 ml of MLB diluent broth. […] This mixture was serial diluted down to 10^−7 with 1 ml placed in triplicate in a sterile petri dish at each dilution point. 20 mls of TSA was added to each dilution, swirled and allowed to solidify. All dilutions were placed in a 35° C. incubator for 24 to 72 hours. Bacterial colonies on each plate were counted and the average taken then changed into log format. […] Graphs were recorded as log of 5.2 for TNTC to show comparison among the other data points.
The tubes were spun down at 5000 rpm for 10 minutes. The supernatant was then decanted into 90 mls of Mueller-Hinton broth with 6 μg/ml methicillin. This is for enrichment and the recovery of any MRSA cells that may be present wether healthy or stressed. The pellet had 10 mls Mueller-Hinton broth with 6 μg/ml methicillin added to it to recover any cells that may be present. Both vessels were incubated at 35° C. for 48 hours and plated each 24 hours. Each vessel was plated at 10 dilutions to obtain a 1 cfu detection limit. Since all vessels were at a 1/10 dilution in the enrichment solution plating each vessel in this manner gave us a detection limit of 1 cfu/ml. […] This time point for graphing purposes will be reported as 0 logs.

[2] = tested on: ATCC strain 43300 Staphylococcus aureus; conditions: ATCC strain 43300 (MRSA); cited from earlier work
[3] = tested on: ATCC strain 43300 Staphylococcus aureus
Description: Additional antibiotic was added every 24 hours. The growth periods tested were 24 (see FIG. 4), 48, 72, 96 and 120 hours.
as §1
ATCC strain 43300 Staphylococcus aureus was streaked out for isolations. An isolated colony was chosen, streaked again and incubated. Isolate was chosen and then diluted to a McFarland standard of one. The estimated value was then taken to inoculate tubes containing growth media and 12, 30 or 60 μg/ml oxacillin with approximately 10^5 cfu/ml. These tubes were incubated and plated for counting cfu. A clone having no observed log reduction in cfu was selected for the rest of the experiment.
Material was calculated on a 10 ml volume. Sterile oxacillin was added to each experimental condition to a final concentration of 12, 30 or 60 μg/ml antibiotic.
All tubes were then inoculated with a dilution of the selected ATCC strain 43300 Staphylococcus aureus clone giving a final level of colony forming units of 3.3×10^5/ml (log=5.52). The tubes were incubated at 25° C. and mixed periodically. Antibiotic was re-inoculated every 24 hours at the initial concentration to maintain pressure on the organism. Plating was done at 24, 48, 72, and 120 hours. Each condition was plated by diluting 1 ml of growth material into 9 ml of MLB diluent broth. […] This mixture was serial diluted down to 10^−7 with 1 ml placed in triplicate in a sterile petri dish at each dilution point. 20 mls of TSA was added to each dilution, swirled and allowed to solidify. All dilutions were placed in a 35° C. incubator for 24 to 72 hours. Bacterial colonies on each plate were counted and the average taken then changed into log format. Any cfu/ml observed greater than 3.3×10^5 (log=5.5) were recorded as >3.3×10^5.
The tube was then taken out of the experiment and tested for ATCC strain 43300 Staphylococcus growth. The tube was spun down at 5000 rpm for 10 minutes. The supernatant was then decanted into 90 mls of Mueller-Hinton broth with 6 μg/ml oxacillin. This is for enrichment and the recovery of any MRSA cells that may be present whether healthy or stressed. The pellet had 10 mls Mueller-Hinton broth with 6 μg/ml oxacillin added to it to recover any cells that may be present. Both vessels were incubated at 35° C. for 48 hours followed by plating every 24 hours. Each vessel was plated at 10 dilutions to obtain a 1 cfu detection limit.

COc1cccc(OC)c1C(=O)N[C@@H]1C(=O)N2[C@@H]1SC(C)(C)[C@@H]2C(=O)O [methicillin, reference compound]
survival (cfu/ml) ([1]; 12 μg/ml methicillin (re-added every 24 hours) + MSM (% in label), inoculum 1.49×10^5/ml): TNTC | survival (cfu/ml) ([1]; 30 μg/ml methicillin + MSM (% in label)): TNTC | survival (cfu/ml) ([1]; 60 μg/ml methicillin + MSM (% in label)): TNTC | decrease in colony forming units from the initial inoculums value ([1]; methicillin alone, 12 μg/ml, 30 μg/ml and 60 μg/ml): no significant decrease in colony forming units | MIC [2]: 6 µg/mL (≈ 15.8 µM)

Cc1onc(-c2ccccc2)c1C(=O)N[C@@H]1C(=O)N2[C@@H]1SC(C)(C)[C@@H]2C(=O)O [oxacillin, reference compound]
survival (cfu/ml) ([3]; 12 μg/ml oxacillin (re-added every 24 hours) + MSM (% in label), 24 hours, three columns = triplicate platings, inoculum 3.3×10^5/ml): >3.3 × 10^5 cfu/ml | survival, Average Log ([3]; 12 μg/ml oxacillin + MSM (% in label), 24 hours): 5.5 Log | survival, Average Log ([3]; 12 μg/ml oxacillin + MSM (% in label), 48 hours): 5.5 Log | survival (cfu/ml) ([3]; 12 μg/ml oxacillin + MSM (% in label), 48 hours, triplicate platings): >3.3 × 10^5 cfu/ml | survival, Average Log ([3]; 12 μg/ml oxacillin + MSM (% in label), 72 hours): 5.5 Log | survival (cfu/ml) ([3]; 12 μg/ml oxacillin + MSM (% in label), 72 hours, triplicate platings): >3.3 × 10^5 cfu/ml | survival, Average Log ([3]; 12 μg/ml oxacillin + MSM (% in label), 96 hours): 5.5 Log | survival (cfu/ml) ([3]; 12 μg/ml oxacillin + MSM (% in label), 96 hours, triplicate platings): >3.3 × 10^5 cfu/ml | survival, Average Log ([3]; 12 μg/ml oxacillin + MSM (% in label), 120 hours): 5.5 Log | survival (cfu/ml) ([3]; 12 μg/ml oxacillin + MSM (% in label), 120 hours, triplicate platings): >3.3 × 10^5 cfu/ml | survival, Average Log ([3]; 30 μg/ml oxacillin + MSM (% in label), 24 hours): 5.5 Log | survival (cfu/ml) ([3]; 30 μg/ml oxacillin + MSM (% in label), 24 hours, triplicate platings): >3.3 × 10^5 cfu/ml | survival, Average Log ([3]; 30 μg/ml oxacillin + MSM (% in label), 48 hours): 5.5 Log | survival (cfu/ml) ([3]; 30 μg/ml oxacillin + MSM (% in label), 48 hours, triplicate platings): >3.3 × 10^5 cfu/ml | survival, Average Log ([3]; 30 μg/ml oxacillin + MSM (% in label), 72 hours): 5.5 Log | survival (cfu/ml) ([3]; 30 μg/ml oxacillin + MSM (% in label), 72 hours, triplicate platings): >3.3 × 10^5 cfu/ml | survival, Average Log ([3]; 30 μg/ml oxacillin + MSM (% in label), 96 hours): 5.5 Log | survival (cfu/ml) ([3]; 30 μg/ml oxacillin + MSM (% in label), 96 hours, triplicate platings): >3.3 × 10^5 cfu/ml | survival, Average Log ([3]; 30 μg/ml oxacillin + MSM (% in label), 120 hours): 5.5 Log | survival (cfu/ml) ([3]; 30 μg/ml oxacillin + MSM (% in label), 120 hours, triplicate platings): >3.3 × 10^5 cfu/ml | survival, Average Log ([3]; 60 μg/ml oxacillin + MSM (% in label), 24 hours): 5.5 Log | survival (cfu/ml) ([3]; 60 μg/ml oxacillin + MSM (% in label), 24 hours, triplicate platings): >3.3 × 10^5 cfu/ml | survival, Average Log ([3]; 60 μg/ml oxacillin + MSM (% in label), 48 hours): 5.5 Log | survival (cfu/ml) ([3]; 60 μg/ml oxacillin + MSM (% in label), 48 hours, triplicate platings): >3.3 × 10^5 cfu/ml | survival, Average Log ([3]; 60 μg/ml oxacillin + MSM (% in label), 72 hours): 5.5 Log | survival (cfu/ml) ([3]; 60 μg/ml oxacillin + MSM (% in label), 72 hours, triplicate platings): >3.3 × 10^5 cfu/ml | survival, Average Log ([3]; 60 μg/ml oxacillin + MSM (% in label), 96 hours): 5.5 Log | survival (cfu/ml) ([3]; 60 μg/ml oxacillin + MSM (% in label), 96 hours, triplicate platings): >3.3 × 10^5 cfu/ml | survival, Average Log ([3]; 60 μg/ml oxacillin + MSM (% in label), 120 hours): 5.5 Log | survival (cfu/ml) ([3]; 60 μg/ml oxacillin + MSM (% in label), 120 hours, triplicate platings): >3.3 × 10^5 cfu/ml | decrease in colony forming units from the initial inoculums value ([3]; oxacillin alone, 12 μg/ml, 30 μg/ml and 60 μg/ml): no significant decrease in colony forming units | MIC [2]: 6 µg/mL (≈ 14.9 µM)
